Values of other authors, collected in PMC6311893, “Computational prediction of plasma protein binding of cyclic peptides from small molecule experimental data using sparse modeling techniques” (BMC Bioinformatics, 2018).
Like-named read-outs stand apart in the source and are kept apart here.

Tested on: plasma protein
Conditions: cited from earlier work
[1] = fraction bound to plasma protein, small molecule dataset, sheet 1-SM, ref Ingle et al.
[2] = fraction bound to plasma protein, small molecule dataset, sheet 1-SM (Set Dte = test, Dtr = training), ref Ingle et al.
[3] = fraction bound to plasma protein, small molecule dataset, sheet 1-SM, Set Dtr, ref Ingle et al.

Row | Compound | PPB (fb) [1] | PPB (fb) [2] | further results
1 | CCNC(=O)[C@@H]1CCCN1C(=O)[C@H](CCCNC(=N)N)NC(=O)[C@H](CC(C)C)NC(=O)[C@@H](CC(C)C)NC(=O)[C@H](Cc1ccc(O)cc1)NC(=O)[C@H](CO)NC(=O)[C@H](Cc1c[nH]c2ccccc12)NC(=O)[C@H](Cc1c[nH]cn1)NC(=O)[C@@H]1CCC(=O)N1 [Leuprolide] |  |  | PPB (fb) (human, plasma): 0.46
2 | COCCOc1c(OC)cc(Cc2cnc(N)nc2N)cc1OC [tetroxoprim] | 0.15 |  | 
3 | CC(NC(C)(C)C)C(=O)c1cccc(Cl)c1 (stereo not drawn) [bupropion] |  | 0.75 | 
4 | N=C(N)c1ccc(C(=O)N[C@@H](Cc2ccc(O)cc2)C(=O)N2CCC(OCC(=O)O)CC2)cc1 [Lamifiban] |  | 0.06 | 
5 | CC(Oc1cccc(F)c1)C(=O)NC1C(=O)N2C1SC(C)(C)C2C(=O)O (stereo not drawn) [penicillin61] | 0.84 |  | 
6 | C[N+](C)(C)CCOC(=O)CCC(=O)OCC[N+](C)(C)C [succinylcholine] |  |  | PPB (fb) (plasma): 0.3
7 | COc1cc2c(cc1O)CCNC21CSC2c3c(OC(C)=O)c(C)c4c(c3C(COC1=O)N1C(O)C3Cc5cc(C)c(OC)c(O)c5C(C21)N3C)OCO4 (stereo not drawn) [Trabectedin (ET-743__ Yondelis)] |  |  | PPB (fb) [3]: 0.94
8 | CC(C)(C)NC(=O)[C@@H]1C[C@@H]2CCCC[C@@H]2CN1C[C@@H](O)[C@H](Cc1ccccc1)NC(=O)[C@H](CC(N)=O)NC(=O)c1ccc2ccccc2n1 [Saquinavir] | 0.98 |  | 
9 | COC(=O)CCc1ccc(OCC(O)CNC(C)C)cc1 (stereo not drawn) [Esmolol] |  |  | PPB (fb) [3]: 0.48
10 | COc1cc(Cc2cnc(N)nc2N)cc(OC)c1OC [Trimethoprim] | 0.46 |  | 
11 | CC(=O)OCC1=C(C(=O)O)N2C(=O)[C@@H](NC(=O)CC#N)[C@H]2SC1 [cephacetrile] |  | 0.2 | 
12 | COc1c(N2CCNC(C)C2)c(F)cc2c(=O)c(C(=O)O)cn(C3CC3)c12 (stereo not drawn) [Gatifloxacin] |  |  | PPB (fb) [3]: 0.2
13 | C1=Cc2cccc(OCC3CNCCO3)c2C1 (stereo not drawn) [indeloxazine] | 0.94 |  | 
14 | CC(Oc1ccc2ccccc2c1)C(=O)NC1C(=O)N2C1SC(C)(C)C2C(=O)O (stereo not drawn) [penicillin69] | 0.95 |  | 
15 | CC(=O)O[C@H]1C[C@@H]2CC[C@@H]3[C@H](CC[C@@]4(C)[C@H]3C[C@H](N3CC[N+](C)(C)CC3)[C@@H]4OC(C)=O)[C@@]2(C)C[C@@H]1N1CC[N+](C)(C)CC1 [Pipecuronium] |  | 0.02 | 
16 | CN[C@H]1CC[C@@H](c2ccc(Cl)c(Cl)c2)c2ccccc21 [sertraline] |  | 0.98 | 
17 | O=C(NCCN1CCOCC1)c1ccc(Cl)cc1 [Moclobemide] |  |  | PPB (fb) [3]: 0.36
18 | CCOC(=O)[C@H](CCc1ccccc1)N[C@H]1CCc2ccccc2N(CC(=O)O)C1=O [benazepril] |  | 0.96 | 
19 | CN(C)CCCC1(c2ccc(F)cc2)OCc2cc(C#N)ccc21 (stereo not drawn) [Citalopram] |  |  | PPB (fb) [3]: 0.68
20 | CC[C@@]1(O)C(=O)OCc2c1cc1n(c2=O)Cc2cc3ccccc3nc2-1 [Camptothecin] |  | 0.98 | 
21 | CN(C)CCc1c[nH]c2ccc(C[C@H]3COC(=O)N3)cc12 [Zolmitriptan] | 0.25 |  | 

Row | Compound | PPB (fb) [1] | PPB (fb) [2] | further results
22 | O=C(O)C1=C(CSc2nnnn2CS(=O)(=O)O)CS[C@@H]2[C@H](NC(=O)[C@H](O)c3ccccc3)C(=O)N12 [cefonicid] |  | 0.98 | 
23 | CCN(CCCCOC(=O)c1ccc(OC)c(OC)c1)C(C)Cc1ccc(OC)cc1 (stereo not drawn) [mebeverine] | 0.75 |  | 
24 | CN1CCN=C(c2ccccc2)c2cc(Cl)ccc21 [medazepam] |  |  | PPB (fb) (plasma): 0.99
25 | O=C(O)c1cccnc1 [niacin] | 0.22 |  | 
26 | CCCCN1C[C@H](O)[C@@H](O)[C@H](O)[C@H]1CO [Miglustat] | 0.01 |  | 
27 | CC(=O)OCC(CCn1cnc2cnc(N)nc21)COC(C)=O [famciclovir] | 0.15 |  | 
28 | C[C@H]1O[C@@H](O[C@H]2CC[C@@]3(C)[C@H](CC[C@@H]4[C@@H]3C[C@@H](O)[C@]3(C)[C@@H](C5=CC(=O)OC5)CC[C@]43O)C2)C[C@H](O)[C@@H]1O[C@H]1C[C@H](O)[C@H](O[C@H]2C[C@H](O)[C@H](O[C@@H]3O[C@H](CO)[C@@H](O)[C@H](O)[C@H]3O)[C@@H](C)O2)[C@@H](C)O1 [deslanoside] |  |  | PPB (fb) (plasma): 0.2
29 | Doxycycline |  |  | PPB (fb) (plasma): 0.89
30 | COCC1=C(C(=O)OC(C)OC(=O)OC(C)C)N2C(=O)[C@@H](NC(=O)/C(=N\OC)c3csc(N)n3)[C@H]2SC1 (stereo partly drawn) [cefpodoxime proxetil] |  | 0.29 | 
31 | C=C(c1ccc(C(=O)O)cc1)c1cc2c(cc1C)C(C)(C)CCC2(C)C [Bexarotene] |  | 0.99 | 
32 | manidipine |  |  | PPB (fb) (plasma): 0.99
33 | CCCN1CCCC[C@H]1C(=O)Nc1c(C)cccc1C [Ropivacaine] | 0.94 |  | 
34 | O=C1CN=C(c2ccccc2)c2cc([N+](=O)[O-])ccc2N1 [Nitrazepam] |  |  | PPB (fb) (plasma): 0.87
35 | COc1ccccc1OCCNCC(O)c1ccc(C)c(S(N)(=O)=O)c1 (stereo not drawn) [amosulalol] |  | 0.98 | 
36 | CN1C(=O)CN=C(C2=CCCCC2)c2cc(Cl)ccc21 [tetrazepam] |  |  | PPB (fb) (plasma): 0.7
37 | C[C@H](Cn1cnc2c(N)ncnc21)OCP(=O)(O)O [Tenofovir] |  | 0.07 | 
38 | CC(C)NC[C@H](O)COc1ccc(O)cc1 [prenalterol] | 0.04 |  | 
39 | Nc1ncn([C@H]2C[C@H](O)[C@@H](CO)O2)c(=O)n1 [Decitabine] |  | 0 | 
40 | CNCCCC12CCC(c3ccccc31)c1ccccc12 [Maprotiline] |  | 0.89 | 
41 | C[C@@H]1CN(c2c(F)c(N)c3c(=O)c(C(=O)O)cn(C4CC4)c3c2F)C[C@H](C)N1 [Sparfloxacin] | 0.45 |  | 
42 | O=C(NCCNCC(O)COc1ccc(O)cc1)N1CCOCC1 (stereo not drawn) [Xamoterol] | 0.03 |  | 

Row | Compound | PPB (fb) [1] | PPB (fb) [2] | further results
43 | CCNCC(O)c1cccc(O)c1 (stereo not drawn) [Etilefrine] |  | 0.24 | 
44 | CCOC(=O)[C@H](CCc1ccccc1)N[C@@H](C)C(=O)N1C(=O)N(C)C[C@H]1C(=O)O [imidapril] | 0.2 |  | 
45 | CC1OC(OC2CC(O)(C(C)O)Cc3c(O)c4c(c(O)c32)C(=O)c2ccccc2C4=O)CC(N)C1O (stereo not drawn) [Idarubicinol] | 0.94 |  | 
46 | COC(C(=O)NC1C(=O)N2C1SC(C)(C)C2C(=O)O)c1cccc(Br)c1 (stereo not drawn) [penicillin39] | 0.88 |  | 
47 | CCCC(C)C1(CC)C(=O)NC(=O)NC1=O (stereo not drawn) [Pentobarbital] |  |  | PPB (fb) (plasma): 0.56
48 | C=C[C@H]1C[N@@]2CC[C@H]1C[C@@H]2[C@@H](O)c1ccnc2ccc(OC)cc12 [Quinidine] |  | 0.74 | 
49 | Clc1ccc(COC(Cn2ccnc2)c2ccc(Cl)cc2Cl)c(Cl)c1 (stereo not drawn) [miconazole] |  | 0.95 | 
50 | NNC(=O)c1ccncc1 [Isoniazid] |  |  | PPB (fb) [3]: 0.01
51 | idoxuridine |  |  | PPB (fb) (plasma): 0
52 | CC(C(=O)O)c1ccc(CC2CCCC2=O)cc1 (stereo not drawn) [loxoprofen] | 0.96 |  | 
53 | Cc1cc2c(OCC(CNC(C)(C)C)OC(=O)c3ccccc3)cccc2[nH]1 (stereo not drawn) [bopindolol] |  | 0.65 | 
54 | CC(=O)Oc1ccc2c3c1OC1C(OC(C)=O)C=CC4C(C2)N(C)CCC341 (stereo not drawn) [diamorphine] |  |  | PPB (fb) (plasma): 0
55 | CCC1(c2ccccc2)NC(=O)N(C)C1=O (stereo not drawn) [mephenytoin] |  | 0.4 | 
56 | OC(CCN1CCCCC1)(c1ccccc1)C1CC2C=CC1C2 (stereo not drawn) [Biperiden] |  |  | PPB (fb) [3]: 0.93
57 | NC[C@H]1CC[C@H](C(=O)O)CC1 [tranexamic acid] |  |  | PPB (fb) [3]: 0.03
58 | CC(=O)OCC1=C(C(=O)O)N2C(=O)[C@@H](NC(=O)Cc3cccs3)[C@H]2SC1 [Cephalothin] |  |  | PPB (fb) [3]: 0.73
59 | O=c1[nH]cc(F)c(=O)[nH]1 [Fluorouracil] |  |  | PPB (fb) [3]: 0.23
60 | CCOc1ccccc1OCCN[C@H](C)Cc1ccc(OC)c(S(N)(=O)=O)c1 [Tamsulosin] | 0.97 |  | 
61 | CCc1oc2ccccc2c1C(=O)c1cc(Br)c(O)c(Br)c1 [benzbromarone] |  | 0.99 | 
62 | CC1(C)SC2C(NC(=O)C(F)c3cccc(N)c3)C(=O)N2C1C(=O)O (stereo not drawn) [penicillin30] |  | 0.26 | 
63 | spironolactone |  |  | PPB (fb) (plasma): 0.98

Row | Compound | PPB (fb) [1] | PPB (fb) [2] | further results
64 | CC(C(=O)O)c1ccc2oc(-c3ccc(Cl)cc3)nc2c1 (stereo not drawn) [benoxaprofen] |  | 0.99 | 
65 | CCCNC(C)C(=O)Nc1ccccc1C (stereo not drawn) [Prilocaine] |  |  | PPB (fb) [3]: 0.39
66 | OC[C@H]1OC(O)[C@H](O)[C@@H](O)[C@@H]1O (stereo partly drawn) [dextrose] |  | 0.3 | 
67 | lanatoside-C | 0.25 |  | 
68 | C[C@@H](O)[C@H]1C(=O)N2C(C(=O)O)=C(SCCOC(N)=O)S[C@H]12 [Sch34343] | 0.65 |  | 
69 | COC(C(=O)NC1C(=O)N2C1SC(C)(C)C2C(=O)O)c1c(Cl)cccc1Cl (stereo not drawn) [penicillin41] | 0.84 |  | 
70 | N=C(N)NC(=O)Cc1c(Cl)cccc1Cl [Guanfacine] |  |  | PPB (fb) [3]: 0.72
71 | O=P(O)(O)C(Cl)(Cl)P(=O)(O)O [clodronic acid] |  | 0.36 | 
72 | CC(C(=O)NC1C(=O)N2C1SC(C)(C)C2C(=O)O)c1ccccc1 (stereo not drawn) [penicillin19] | 0.68 |  | 
73 | CN1CCc2c(c3ccccc3n2Cc2ccccc2)C1 [mebhydrolin] | 0.04 |  | 
74 | CN1CCN(CCCN2c3ccccc3Sc3ccccc32)CC1 [perazine] | 0.95 |  | 
75 | CO[C@]12C[C@@H](COC(=O)c3cncc(Br)c3)CN(C)[C@@H]1Cc1cn(C)c3cccc2c13 [nicergoline] | 0.95 |  | 
76 | CCCC(C)C1(CC)C(=O)NC(=S)NC1=O (stereo not drawn) [Thiopental] |  |  | PPB (fb) (plasma): 0.84
77 | CCC(CC)OCC(=O)NC1C(=O)N2C1SC(C)(C)C2C(=O)O (stereo not drawn) [penicillin8] | 0.47 |  | 
78 | NC(=O)OCC(COC(N)=O)c1ccccc1 [felbamate] | 0.23 |  | 
79 | cefotiam |  |  | PPB (fb) (plasma): 0.4
80 | COc1cc2c(cc1OC)[C@@H](Cc1cc(OC)c(OC)c(OC)c1)[N+](C)(CCCOC(=O)CC/C=C/CCC(=O)OCCC[N+]1(C)CCc3cc(OC)c(OC)cc3[C@H]1Cc1cc(OC)c(OC)c(OC)c1)CC2 (stereo partly drawn) [Mivacurium] |  |  | PPB (fb) [3]: 0.3
81 | CN(C)CCc1c[nH]c2ccc(CS(=O)(=O)N3CCCC3)cc12 [Almotriptan] |  |  | PPB (fb) [3]: 0.37
82 | CC1(C)SC2C(NC(=O)C(N)c3ccc(Cl)cc3)C(=O)N2C1C(=O)O (stereo not drawn) [penicillin28] | 0.55 |  | 
83 | OCCN(CCO)c1nc(N2CCCCC2)c2nc(N(CCO)CCO)nc(N3CCCCC3)c2n1 [dipyridamole] |  | 0.99 | 
84 | CC(C)(C)N1CCC(c2ccccc2)(c2ccccc2)CC1 [budipine] |  | 0.96 | 
